Calls of active or inactive are those of the source. The calls are words filed in the database; no cut-off is given here.
Key:
RV-1 [1] = experiment: Antiproliferative activity against human RV-1 cells assessed as reduction in cell viability at 1. 5 to 20 uM incubated for 3 days by tryphan blue assay; format: functional, cell-based; settings: dose 5-20 µM, time 3.0 day
[2] = Induction of cell cycle arrest in human RV-1 cells assessed as accumulation of cells at G2/M phase at 200 nM incubated for 5 days by propidium iodide staining based flow cytometric analysis (reference value: 11.4 %); format: functional; settings: time 5 day
[3] = Inhibition of PI3K/AKT/mTOR signalling pathway in human RV-1 cells assessed as decrease in PRAS40 phosphorylation at T246 residue at 200 nM incubated for 4 hrs by immunoblot analysis; format: cell-based
[4] = Inhibition of PI3K/AKT/mTOR signalling pathway in human RV-1 cells assessed as decrease in AKT phosphorylation at S473 residue at 200 nM incubated for 4 hrs by immunoblot analysis; format: cell-based
[5] = Inhibition of PI3K/AKT/mTOR signalling pathway in human RV-1 cells assessed as decrease in 4EBP phosphorylation at T37/46 residue at 200 nM incubated for 5 days by immunoblot analysis; format: cell-based; settings: time 5.0 day
[6] = Induction of cell cycle arrest in human RV-1 cells assessed as accumulation of cells at S phase at 200 nM incubated for 5 days by propidium iodide staining based flow cytometric analysis (reference value: 28.9 %); format: functional; settings: time 5 day
[7] = target: Cytoplasmic tyrosine-protein kinase BMX (Homo sapiens) (UniProt P51813); experiment: Inhibition of BMX (unknown origin) at < 10 uM by Z'LYTE assay
[8] = Induction of cell cycle arrest in human RV-1 cells assessed as accumulation of cells at G1 phase at 200 nM incubated for 5 days by propidium iodide staining based flow cytometric analysis (reference value: 59.7 %); format: functional; settings: time 5 day
[9] = Inhibition of PI3K/AKT/mTOR signalling pathway in human RV-1 cells assessed as decrease in AKT phosphorylation at T308 residue at 200 nM incubated for 4 hrs by immunoblot analysis; format: cell-based
[10] = Inhibition of PI3K/AKT/mTOR signalling pathway in human RV-1 cells assessed as decrease in S6K phosphorylation at T389 residue at 200 nM incubated for 5 days by immunoblot analysis; format: cell-based; settings: time 5.0 day
BaF3 [11] = experiment: Antiproliferative activity against mouse BaF3 cells expressing TEL-fused BMX assessed growth inhibition incubated for 2 to 5 days by CellTiter-Glo assay; format: functional, cell-based; settings: time 2-5 day
BaF3 [12] = experiment: Antiproliferative activity against mouse BaF3 cells expressing TEL-fused TYK2 […] mutant assessed growth inhibition incubated for 2 to 5 days by CellTiter-Glo assay; format: functional; settings: time 2-5 day
BaF3 [13] = experiment: Antiproliferative activity against mouse BaF3 cells expressing TEL-fused BLK assessed growth inhibition incubated for 2 to 5 days by CellTiter-Glo assay; format: functional; settings: time 2-5 day
RV-1 [14] = experiment: Down regulation of BMX protein expression in human RV-1 cells expressing wild type BMX at 5 uM incubated for 72 hrs by western blot analysis; format: functional, cell-based
BaF3 [15] = experiment: Antiproliferative activity against mouse BaF3 cells expressing TEL-fused JAK1 assessed growth inhibition incubated for 2 to 5 days by CellTiter-Glo assay; format: functional; settings: time 2-5 day
[16] = Down regulation of BMX protein expression in human RV-1 cells expressing wild type BMX assessed protein expression level at 2.5 uM pre incubated for 4 hrs followed by compound wash out and additon of CHX and measured after 24 hrs by immunoblot analysis (reference value: 0.98 to 1.01); format: functional
BaF3 [17] = experiment: Antiproliferative activity against mouse BaF3 cells expressing TEL-fused JAK2 assessed growth inhibition incubated for 2 to 5 days by CellTiter-Glo assay; format: functional; settings: time 2-5 day
[18] = Down regulation of BMX protein expression in human RV-1 cells expressing BMX C496S mutant assessed protein expression level at 2.5 uM pre incubated for 4 hrs followed by compound wash out and additon of CHX and measured after 24 hrs by immunoblot analysis (reference value: 1.01 to 1.13); format: functional
[19] = Down regulation of BMX protein expression in human RV-1 cells expressing BMX C496S mutant assessed protein expression level at 2.5 uM pre incubated for 4 hrs followed by compound wash out and additon of CHX and measured after 16 hrs by immunoblot analysis (reference value: 1.01 to 1.13); format: functional
[20] = Down regulation of BMX protein expression in human RV-1 cells expressing wild type BMX assessed protein expression level at 2.5 uM pre incubated for 4 hrs followed by compound wash out and additon of CHX and measured after 16 hrs by immunoblot analysis (reference value: 0.98 to 1.01); format: functional
RV-1 [21] = experiment: Down regulation of BMX protein expression in human RV-1 cells expressing BMX C496S mutant at 5 uM incubated for 72 hrs by western blot analysis; format: functional, cell-based
BaF3 [22] = experiment: Antiproliferative activity against mouse BaF3 cells expressing TEL-fused JAK3 assessed growth inhibition incubated for 2 to 5 days by CellTiter-Glo assay; format: functional; settings: time 2-5 day
[23] = Cytotoxicity against mouse BaF3 cells assessed growth inhibition incubated for 2 to 5 days by CellTiter-Glo assay; format: toxicity, cell-based; settings: time 2-5 day

Chain of Cytoplasmic tyrosine-protein kinase BMX (Homo sapiens) (P51813 whole entry): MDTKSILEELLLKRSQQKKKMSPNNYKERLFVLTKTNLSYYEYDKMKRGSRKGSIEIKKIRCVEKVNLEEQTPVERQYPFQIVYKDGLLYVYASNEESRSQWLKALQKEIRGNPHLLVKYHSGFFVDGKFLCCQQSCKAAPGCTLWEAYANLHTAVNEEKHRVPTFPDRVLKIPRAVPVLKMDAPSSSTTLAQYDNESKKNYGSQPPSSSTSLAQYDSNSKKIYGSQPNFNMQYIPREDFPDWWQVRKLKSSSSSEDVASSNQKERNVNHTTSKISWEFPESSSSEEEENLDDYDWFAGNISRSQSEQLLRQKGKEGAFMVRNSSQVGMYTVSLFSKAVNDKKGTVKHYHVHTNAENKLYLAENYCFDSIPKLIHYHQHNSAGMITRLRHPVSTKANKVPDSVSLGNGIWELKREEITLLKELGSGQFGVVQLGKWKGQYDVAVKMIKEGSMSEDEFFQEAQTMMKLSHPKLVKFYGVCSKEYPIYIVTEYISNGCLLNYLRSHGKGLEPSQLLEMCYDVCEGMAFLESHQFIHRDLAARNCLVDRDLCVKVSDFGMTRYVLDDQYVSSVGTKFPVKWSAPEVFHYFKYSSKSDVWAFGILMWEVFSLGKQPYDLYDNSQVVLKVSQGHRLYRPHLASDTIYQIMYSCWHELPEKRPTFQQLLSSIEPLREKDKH

C=CC(=O)N1CCC[C@@H](n2nc(-c3ccc(Oc4ccccc4)cc3)c3c(N)ncnc32)C1
Activity (RV-1 [1]): Active

Cl.NC1(c2ccc(-c3nc4ccn5c(=O)[nH]nc5c4cc3-c3ccccc3)cc2)CCC1
Activity [2]: 10.9%
inhibition [3]: Active
inhibition [4]: Active
inhibition [5]: Active
Activity [6]: 29.1%
inhibition [7]: inactive
Activity [8]: 60%
inhibition [9]: Active
inhibition [10]: Active

CCC(=O)Nc1cc(-n2c(=O)ccc3cnc4ccc(NS(C)(=O)=O)cc4c32)ccc1C
GI50 (BaF3 [11]): > 10 µM
GI50 (BaF3 [12]): > 10 µM
GI50 (BaF3 [13]): > 10 µM
Activity (RV-1 [14]): inactive
GI50 (BaF3 [15]): > 10 µM
Activity [16]: 0.72
GI50 (BaF3 [17]): > 10 µM
Activity [18]: 0.51
Activity [19]: 0.8
Activity [20]: 0.64
Activity (RV-1 [21]): inactive
GI50 (BaF3 [22]): > 10 µM
GI50 [23]: > 10 µM
